Data: patent US20230371508A1, “COMPOSITIONS AND METHODS FOR KILLING INSECT AND NON-INSECT PESTS” (The United States of America, as represented by the …, priority 2018, published 2023)
“Also recorded” adds a separate entry of the source.

Tested on: S. invicta workers
Test: Fumigant toxicity in sealed glass flask
Assay type: in vivo, Solenopsis invicta
Conditions: Solenopsis invicta, 24 h, read-out: mean mortality, dosage 1.43 μg/ml, 24 h
Experimental: A 250-ml glass flask (the whole volume is 280 ml) was used to house worker ants in fumigant toxicity bioassays. Two micro-liter of acetone solution of the tested compound was applied onto a paraffin film, which was used to seal the flask with ants. The treated spot of the paraffin film faced the inside of the flask. The upper part of the flask was coated with Fluon® to prevent ants from contacting the test material. Two experiments were conducted. […] LC50 value was established using 5 dosages. Each dosage was replicated 3 times for each of 3 colonies. Each replicate consisted of 15 to 26 ants. Ants that could not stand by themselves were considered dead. Dead ants were counted after 24 h.

How did the mortality at 1.43 µg/mL turn out when `CCCOC(=O)c1ccccc1` [nPrB, n-propyl benzoate] was run?
Its mortality at 1.43 µg/mL is 79.4%.

Tested on: D. suzukii
Test: Insecticidal activity on larvae and pupae development and adult emergence in pre-infested blueberries (dip)
Assay type: in vivo, Drosophila suzukii
Conditions: 1% concentration on 4 days pre-infested blueberries, 10 days incubation
Experimental: Impacts of MB and other compounds on D. suzukii control: To investigate the acute toxicity of some compounds of formula 1 against D. suzukii, a published procedure was followed (Cuthbertson, A. G. S., et al., Insects, 5: 488-498 (2014)). First, mixed-sex adults D. suzukii (100) were introduced into a plastic cage (30×30×30 cm) and reared on blueberries (100) for 4 days. After that, the infested blueberries were taken out from the cage. Half of the blueberries (50) were dipped in 100 mL aqueous emulsion of each compound listed in Table 1 at 1% concentration for 2 min as treatment, while the other half of the blueberries (50) were dipped in DI water for 2 min as blank control. Then the corresponding blueberries were separately taken out, placed in two different Petri dishes, and allowed to air dry for 2 h. Second, treatment and blank control blueberries were respectively stored in two plastic cups (32 oz) with closed caps and incubated at room temperature for 10 days. The emergence of adults was then subsequently assessed. The developments of larvae and pupae were further inspected by dissection of the treatment and blank control berries. Each treatment and blank control was repeated three times.

With `O=C(OCc1ccccc1)c1ccccc1` [BB, benzyl benzoate] as the compound, how does the “insecticidal toxicity against D. suzukii (in words)” value (shortened to “insecticidal toxicity”) read?
Its value is “poor toxicities”.

For `CC(C)COC(=O)c1ccccc1` [iBB, iso-butyl benzoate], which “insecticidal toxicity” value is on record?
Its value is “poor toxicities”.

`CCCCCOC(=O)c1ccccc1` [nPeB, n-pentyl benzoate] was tested. Which “insecticidal toxicity” value did it give?
Its value is “did not show any insecticidal activities”.

Which “insecticidal toxicity” value does the source give for `CCCOC(=O)c1ccccc1` [nPrB, n-propyl benzoate] here?
Its value is “good insecticidal toxicity”.

Same assay, conditions: pre-infested berries soaked 2 min in 1% solution; assessed after 10 days at room temperature; mean of three replicates (standard error)

How did the Adults turn out when `O=C(OCc1ccccc1)c1ccccc1` [BB, benzyl benzoate] was run?
The Adults was 40.0(8.4).

What about the Larvae of the same compound?
The Larvae was 5.7(0.7).

And the Pupae?
Its Pupae is 40.0(5.8).

Which results are given for `CC(C)COC(=O)c1ccccc1` [iBB, iso-butyl benzoate]?
Adults: 24.7(0.9); Larvae: 6.0(1.5); Pupae: 15.7(1.9)

Which results are given for `CCCCCOC(=O)c1ccccc1` [nPeB, n-pentyl benzoate]?
Adults: 36.3(3.9); Larvae: 5.3(0.9); Pupae: 37.7(6.7)

`CCCOC(=O)c1ccccc1` [nPrB, n-propyl benzoate] was tested. Which Adults did it give?
Its Adults is 3.0(0.6).

What about the Larvae of the same compound?
Its Larvae is 1.7(0.3).

What about the Pupae of the same compound?
The Pupae was 4.0(0.6).

Tested on: S. invicta workers
Test: not given
Conditions: colony 1, 24 h
Experimental: Fire ant bioassays were conducted in USDA, ARS Stoneville laboratory at 25° C., 80% R.H. with a 12:12 (L:D) photoperiod. Contact toxicities of MB and some compounds of formula 1 against fire ants: Topical application was used for contact toxicity bioassay. Only large workers were used for a purpose of relatively uniform body weight and ease of handling. For all compounds, acetone was used as a solvent. The solution was applied using a 0.779 μl capillary tube. Two experiments were conducted for assessing contact toxicity. […] In order to investigate the structure-activity relationship, LD50 values were also established for MB and EB. […] For each LD50 value, 5 doses of benzoates were used. Each dose was replicated 3 times. Each replicate consisted of 13 to 18 ants. Treated ants were placed in a 30-ml capped cup and dead ants were counted after 24 h.

For `CC(C)COC(=O)c1ccccc1` [iBB, iso-butyl benzoate], which LD50 is on record?
Its LD50 is 80.07 μg/ant.

How did the LD50 turn out when `CCCCCOC(=O)c1ccccc1` [nPeB, n-pentyl benzoate] was run?
Its LD50 is 35.97 μg/ant.

Which LD50 does the source give for `CCCOC(=O)c1ccccc1` [nPrB, n-propyl benzoate] here?
The LD50 was 109.89 μg/ant.

Same assay, conditions: colony 2, 24 h

How did the LD50 turn out when `CC(C)COC(=O)c1ccccc1` [iBB, iso-butyl benzoate] was run?
The LD50 was 96.57 μg/ant.

For `CCCCCOC(=O)c1ccccc1` [nPeB, n-pentyl benzoate], which LD50 is on record?
Its LD50 is 41.16 μg/ant.

With `CCCOC(=O)c1ccccc1` [nPrB, n-propyl benzoate] as the compound, how does the LD50 read?
The LD50 was 109.26 μg/ant.

Same assay, conditions: colony 3, 24 h

For `CC(C)COC(=O)c1ccccc1` [iBB, iso-butyl benzoate], which LD50 is on record?
Its LD50 is 55.75 μg/ant.

For `CCCCCOC(=O)c1ccccc1` [nPeB, n-pentyl benzoate], which LD50 is on record?
Its LD50 is 28.64 μg/ant.

Same assay, conditions: dose 77.9 μg/ant, 24 h

For `CCCCCOC(=O)c1ccccc1` [nPeB, n-pentyl benzoate], which “increase of mean mortality compared with MB” value is on record?
The value was 13 times.

And the mean mortality?
Its mean mortality is 99.26%.

Which “increase of mean mortality compared with MB” value does the source give for `CCCOC(=O)c1ccccc1` [nPrB, n-propyl benzoate] here?
Its value is 6 times.

And the mean mortality?
Its mean mortality is 45.5%.

Same assay, conditions: in vivo

How did the “contact toxicity against S. invicta (in words)” value turn out when `O=C(OCc1ccccc1)c1ccccc1` [BB, benzyl benzoate] was run?
The value was “potent contact toxicities”.

`CCCCCOC(=O)c1ccccc1` [nPeB, n-pentyl benzoate] was tested. Which “contact toxicity against S. invicta (in words)” value did it give?
Its value is “comparable results; also recorded: potent contact toxicities”.

Tested on: H. halys nymphs
Test: Nymphicidal toxicity, treated filter paper in glass vial
Assay type: in vivo
Conditions: 2nd stage nymphs, 24 hr
Experimental: Toxicities of MB, some compounds of formula 1, and commercial pesticides on H. halys nymphs: The bioassays were carried out in glass vials (20 mL), following a published procedure (Nielsen, A. L., et al., J. Econ. Entomol., 101: 1439-1442 (2008)). Filter paper was cut into round shape pieces (2.4 cm diameter). 50 μL acetone solution of one derivative or commercial pesticide with different concentrations was loaded onto the filter paper evenly, and the filter paper was dried for 1 min and then put into the bottom of vial. A small piece of green bean was put on the filter paper in the vial as food source. Different stages of H. halys nymphs were introduced into the vial and capped with a cotton ball. For each stage, 30 nymphs were used for each amount. For the nymphs of the first instar, 10 nymphs were put into 1 vial. For the nymphs of the second and third instar, 5 nymphs were put into 1 vial. For the nymphs of the fourth instar, 3 nymphs were put into 1 vial. For the nymphs of the fifth instar, 2 nymphs were put into 1 vial. The mortality was assessed after 24 hr.

`C/C(=N\C#N)N(C)Cc1ccc(Cl)nc1` [AP, acetamiprid, reference compound] was tested. Which “LC50 (95% CL)” value did it give?
The value was 0.257 (0.169-0.340) μL/vial.

Same assay, conditions: 3rd stage nymphs, 24 hr

Which “LC50 (95% CL)” value does the source give for `C/C(=N\C#N)N(C)Cc1ccc(Cl)nc1` [AP, acetamiprid, reference compound] here?
The value was 0.475 (0.301-0.641) μL/vial.

`CC(C)COC(=O)c1ccccc1` [iBB, iso-butyl benzoate] was tested. Which “LC50 (95% CL)” value did it give?
The value was 4.890 (2.845-24.779) μL/vial.

With `CC(COc1ccc(Oc2ccccc2)cc1)Oc1ccccn1` (stereo not drawn) [PF, pyriproxyfen, reference compound] as the compound, how does the “LC50 (95% CL)” value read?
The value was 1.798 (1.397-2.797) μL/vial.

How did the “LC50 (95% CL)” value turn out when `CCCOC(=O)c1ccccc1` [nPrB, n-propyl benzoate] was run?
Its value is 2.591 (2.086-3.839) μL/vial.

Same assay, conditions: 5th stage nymphs, 24 hr

`C/C(=N\C#N)N(C)Cc1ccc(Cl)nc1` [AP, acetamiprid, reference compound] was tested. Which “LC50 (95% CL)” value did it give?
Its value is 1.414 (1.165-1.642) μL/vial.

With `CC(COc1ccc(Oc2ccccc2)cc1)Oc1ccccn1` (stereo not drawn) [PF, pyriproxyfen, reference compound] as the compound, how does the “LC50 (95% CL)” value read?
Its value is 2.700 (1.881-4.836) μL/vial.

Same assay, conditions: in vivo

What does the source list for `O=C(OCc1ccccc1)c1ccccc1` [BB, benzyl benzoate]?
LC50 (95% CL): 5.619 (3.028-44.599) μL/vial; toxicity against H. halys nymphs (in words): deficient toxicities

With `CC(C)COC(=O)c1ccccc1` [iBB, iso-butyl benzoate] as the compound, how does the “toxicity against H. halys nymphs (in words)” value read?
Its value is “deficient toxicities”.

With `CCCCCOC(=O)c1ccccc1` [nPeB, n-pentyl benzoate] as the compound, how does the “toxicity against H. halys nymphs (in words)” value read?
The value was “did not show toxicities”.

Tested on: L. dispar larvae
Test: Larvicidal toxicity, treated filter paper in Petri dish
Assay type: in vivo
Conditions: 1st stage larvae, 24 hr
Experimental: Toxicities of MB and some compounds of formula 1 on L. dispar larvae: The bioassays were carried out in plastic Petri dish loaded with filter paper, following a published procedure (Nielsen 2008). 600 μL acetone solution of one derivative with different concentrations was loaded onto the filter paper (90 mm diameter) evenly, and the filter paper was dried for 2 min and then put into the bottom of Petri dish. 10 L. dispar larvae were put onto the Petri dish and covered with a lid. 30 larvae were used for each amount. The mortality was assessed after 24 hr.

Which “LC50 (95% CL)” value does the source give for `C/C(=N\C#N)N(C)Cc1ccc(Cl)nc1` [AP, acetamiprid, reference compound] here?
The value was 0.221 (0.167-0.291) mg/cm^2.

`CC(C)COC(=O)c1ccccc1` [iBB, iso-butyl benzoate] was tested. Which “LC50 (95% CL)” value did it give?
Its value is 0.193 (0.165-0.234) mg/cm^2.

How did the “LC50 (95% CL)” value turn out when `CC(COc1ccc(Oc2ccccc2)cc1)Oc1ccccn1` (stereo not drawn) [PF, pyriproxyfen, reference compound] was run?
Its value is 0.086 (0.057-0.124) mg/cm^2.

For `CCCCCOC(=O)c1ccccc1` [nPeB, n-pentyl benzoate], which “LC50 (95% CL)” value is on record?
Its value is 0.165 (0.118-0.208) mg/cm^2.

Which “LC50 (95% CL)” value does the source give for `CCCOC(=O)c1ccccc1` [nPrB, n-propyl benzoate] here?
Its value is 0.159 (0.135-0.199) mg/cm^2.

Same assay, conditions: 1st stage larvae, 24 hr; listed as acetamiprid

How did the “LC50 (95% CL)” value turn out when `C/C(=N\C#N)N(C)Cc1ccc(Cl)nc1` [AP, acetamiprid, reference compound] was run?
Its value is 0.221 mg/cm^2.

Same assay, conditions: 1st stage larvae, 24 hr; listed as pyriproxyfen

For `CC(COc1ccc(Oc2ccccc2)cc1)Oc1ccccn1` (stereo not drawn) [PF, pyriproxyfen, reference compound], which “LC50 (95% CL)” value is on record?
Its value is 0.086 mg/cm^2.

Same assay, conditions: in vivo

`O=C(OCc1ccccc1)c1ccccc1` [BB, benzyl benzoate] was tested. Which “larvicidal toxicity against L. dispar (in words)” value did it give?
Its value is “did not show any toxicities”.

Tested on: Plutella xylostella eggs
Test: Ovicidal toxicity, direct spray on eggs
Assay type: in vivo
Conditions: hatchability after 10 days; 0.05% and 0.1% concentrations (FIG. 3)
Description: Ovicidal toxicities of MB and some compounds of formula 1: The aqueous solutions of one of the compounds of formula 1 with designated concentrations with different concentrations of active ingredient (AI) were separately stored in glass spray bottles according to a published procedure (Cuthbertson 2014). The eggs (10 for H. halys and 100 for P. xylostella) were laid on filter papers in Petri dishes. Different aqueous insecticidal solutions were sprayed on the surfaces of different eggs three times (˜0.5 mL) to completely cover the treatment areas. Then the Petri dishes were covered with lids and maintained in a fume hood for 10 days. The Petri dishes were then inspected for presence of nymph/larvae development or numbers of unhatched eggs.

Which “ovicidal toxicity against P. xylostella eggs (in words)” value does the source give for `CCCCCOC(=O)c1ccccc1` [nPeB, n-pentyl benzoate] here?
Its value is “comparable toxicity comparing with MB”.
